Target: T1, BTK protein (Homo sapiens, UniProt Q06187)
T1 construct: endogenous in cells; host or cells: TMD-8 cells
Assay: Measurement of BTK protein degradation ability in TMD-8 cells (Western blotting)
Type: cell-based
Settings: harvested after 24 hours; for BTK degradation (%) 1 nM: compound 1 nM; for BTK degradation (%) 10 nM: compound 10 nM; for BTK degradation (%) 100 nM: compound 100 nM
Summary of the method: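 BTK levels were measured by immunoblotting of equal-protein RIPA lysates, normalized to GAPDH or β-actin, with chemiluminescent or infrared detection. Lysates came from TMD-8 cells exposed to compound for 24 h at final concentrations of 0.1, 1, 10 μM or 0.0001–0.1 μM, against a DMSO control.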

T1 sequence (Q06187 whole entry): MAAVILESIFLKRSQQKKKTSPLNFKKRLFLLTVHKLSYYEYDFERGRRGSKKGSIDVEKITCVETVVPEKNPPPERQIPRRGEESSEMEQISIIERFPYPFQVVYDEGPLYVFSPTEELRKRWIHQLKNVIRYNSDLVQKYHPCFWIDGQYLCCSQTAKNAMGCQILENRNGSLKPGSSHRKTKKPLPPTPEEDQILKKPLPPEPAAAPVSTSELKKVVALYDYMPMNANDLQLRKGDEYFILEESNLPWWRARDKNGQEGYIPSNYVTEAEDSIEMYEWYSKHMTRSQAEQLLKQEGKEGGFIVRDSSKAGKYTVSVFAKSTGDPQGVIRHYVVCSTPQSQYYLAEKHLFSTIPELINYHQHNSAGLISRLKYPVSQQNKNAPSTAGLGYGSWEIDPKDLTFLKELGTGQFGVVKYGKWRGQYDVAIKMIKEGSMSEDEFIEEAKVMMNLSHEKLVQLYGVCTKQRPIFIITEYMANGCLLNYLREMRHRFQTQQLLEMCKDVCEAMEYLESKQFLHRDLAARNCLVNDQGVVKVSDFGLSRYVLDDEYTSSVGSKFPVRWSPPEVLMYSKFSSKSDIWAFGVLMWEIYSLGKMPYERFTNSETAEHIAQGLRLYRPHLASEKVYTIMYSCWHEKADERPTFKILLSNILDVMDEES

| Compound | BTK degradation (%) 1 nM | BTK degradation (%) 10 nM | BTK degradation (%) 100 nM |
| --- | --- | --- | --- |
| Cc1cc(-c2ccnc(Nc3ccc(N4CCN(CC5CCN(c6cccc(N7CCC(=O)NC7=O)c6)CC5)CC4)nc3)n2)ccc1CNC(=O)c1cnn(C(C)(C)C)c1 [Example 83, 1-(tert-butyl)-N-(4-(2-((6-(4-((1-(3-(2,4-dioxotetrahydropyrimidin-1 (2H)-yl)phenyl)piperidin-4-yl)methyl)piperazin-1-yl)pyridin-3-yl)amino)pyrimidin-4-yl)-2-methylbenzyl)-1H-pyrazole-4-carboxamide] | 51.0% | 96.5% | 99.5% |
| Cc1cc(-c2ccnc(Nc3ccc(C4CCN(CC5CCN(c6cccc(N7CCC(=O)NC7=O)c6)CC5)CC4)cc3)n2)ccc1CNC(=O)c1cnn(C(C)C)c1 [Example 84, N-(4-(2-((4-(1-((1-(3-(2,4-dioxotetrahydropyrimidin-1 (2H)-yl)phenyl)piperidin-4-yl)methyl)piperidin-4-yl)phenyl)amino)pyrimidin-4-yl)-2-methylbenzyl)-1-isopropyl-1H-pyrazole-4-carboxamide] | 36.0% | 92.0% | 99.0% |
| Cc1cc(-c2ccnc(Nc3ccc(C4CCN(CC5CCN(c6cccc(N7CCC(=O)NC7=O)c6)CC5)CC4)cc3)n2)ccc1CNC(=O)c1cnn(C(C)(C)C)c1 [Example 85, 1-(tert-butyl)-N-(4-(2-((4-(1-((1-(3-(2,4-dioxotetrahydropyrimidin-1 (2H)-yl)phenyl)piperidin-4-yl)methyl)piperidin-4-yl)phenyl)amino)pyrimidin-4-yl)-2-methylbenzyl)-1H-pyrazole-4-carboxamide] | 45.5% | 93.5% | 98.5% |
| COc1ccc(C(=O)N2CCC(CN3CCN(c4ccc(Nc5nccc(-c6ccc(CNC(=O)N7CC(OC(C)C)C7)c(C)c6)n5)cc4)CC3)CC2)cc1N1CCC(=O)NC1=O [Example 86, N-(4-(2-((4-(4-((1-(3-(2,4-dioxotetrahydropyrimidin-1 (2H)-yl)-4-methoxybenzoyl)piperidin-4-yl)methyl)piperazin-1-yl)phenyl)amino)pyrimidin-4-yl)-2-methylbenzyl)-3-isopropoxyazetidine-1-carboxamide] | 22% | 90% | 97.5% |
| Cc1cc(-c2ccnc(Nc3ccc(N4CCN(CC5CCN(C(=O)c6cccc(NC7CCC(=O)NC7=O)c6)CC5)CC4)cc3)n2)ccc1CNC(=O)N1CC(OC(C)C)C1 (stereo not drawn) [Example 87, N-(4-(2-((4-(4-((1-(3-((2,6-dioxopiperidin-3-yl)amino)benzoyl)piperidin-4-yl)methyl)piperazin-1-yl)phenyl)amino)pyrimidin-4-yl)-2-methylbenzyl)-3-isopropoxyazetidine-1-carboxamide] | 36.5% | 94.5% | 98.5% |
| Cc1cc(-c2ccnc(Nc3ccc(N4CCN(CC5CN(C(=O)c6cccc(NC7CCC(=O)NC7=O)c6)C5)CC4)cc3)n2)ccc1CNC(=O)N1CC(OC(C)C)C1 (stereo not drawn) [Example 88, N-(4-(2-((4-(4-((1-(3-((2,6-dioxopiperidin-3-yl)amino)benzoyl)azetidin-3-yl)methyl)piperazin-1-yl)phenyl)amino)pyrimidin-4-yl)-2-methylbenzyl)-3-isopropoxyazetidine-1-carboxamide] | 35.5% | 94.5% | 98.5% |
| Cc1cc(-c2ccnc(Nc3ccc(N4CCN(CC5CCN(C(=O)c6cccc(N7CCC(=O)NC7=O)c6)CC5)CC4)cc3)n2)ccc1CNC(=O)N1CC(OC(C)C)C1 [Example 89, N-(4-(2-((4-(4-((1-(3-(2,4-dioxotetrahydropyrimidin-1 (2H)-yl)benzoyl)piperidin-4-yl)methyl)piperazin-1-yl)phenyl)amino)pyrimidin-4-yl)-2-methylbenzyl)-3-isopropoxyazetidine-1-carboxamide] | −0.5% | 33% | 87% |
| COc1ccc(C(=O)N2CCC(CN3CCN(c4ccc(Nc5nccc(-c6cc(F)cc(NC(=O)N7CC(OC(C)C)C7)c6C)n5)cc4)CC3)CC2)cc1N1CCC(=O)NC1=O [Example 90, N-(3-(2-((4-(4-((1-(3-(2,4-dioxotetrahydropyrimidin-1 (2H)-yl)-4-methoxybenzoyl)piperidin-4-yl)methyl)piperazin-1-yl)phenyl)amino)pyrimidin-4-yl)-5-fluoro-2-methylphenyl)-3-isopropoxyazetidine-1-carboxamide] | 4% | 10% | 37.5% |
| Cc1cc(-c2ccnc(Nc3cnn(C4CCN(CC5CCN(C(=O)c6cccc(NC7CCC(=O)NC7=O)c6)CC5)CC4)c3)n2)ccc1CNC(=O)N1CC(OC(C)C)C1 (stereo not drawn) [Example 91, N-(4-(2-((1-(1-((1-(3-((2,6-dioxopiperidin-3-yl)amino)benzoyl)piperidin-4-yl)methyl)piperidin-4-yl)-1H-pyrazol-4-yl)amino)pyrimidin-4-yl)-2-methylbenzyl)-3-isopropoxyazetidine-1-carboxamide] | 4.5% | 68.5% | 95.0% |
| Cc1cc(-c2ccnc(Nc3cnn(C4CCN(CC5CN(C(=O)c6cccc(NC7CCC(=O)NC7=O)c6)C5)CC4)c3)n2)ccc1CNC(=O)N1CC(OC(C)C)C1 (stereo not drawn) [Example 92, N-(4-(2-((1-(1-((1-(3-((2,6-dioxopiperidin-3-yl)amino)benzoyl)azetidin-3-yl)methyl)piperidin-4-yl)-1H-pyrazol-4-yl)amino)pyrimidin-4-yl)-2-methylbenzyl)-3-isopropoxyazetidine-1-carboxamide] | 7.0% | 33.5% | 89.0% |
| Cc1cc(-c2ccnc(Nc3ccc(N4CCN(CC5CCN(C(=O)c6cccc(NC7CCC(=O)NC7=O)c6)CC5)CC4)cc3)n2)ccc1CNC(=O)c1cnn(C(C)C)c1 (stereo not drawn) [Example 93, N-(4-(2-((4-(4-((1-(3-((2,6-dioxopiperidin-3-yl)amino)benzoyl)piperidin-4-yl)methyl)piperazin-1-yl)phenyl)amino)pyrimidin-4-yl)-2-methylbenzyl)-1-isopropyl-1H-pyrazole-4-carboxamide] | 62.0% | 94.5% | 98.5% |
| Cc1cc(-c2ccnc(Nc3ccc(N4CCN(CC5CN(C(=O)c6cccc(NC7CCC(=O)NC7=O)c6)C5)CC4)cc3)n2)ccc1CNC(=O)c1cnn(C(C)C)c1 (stereo not drawn) [Example 94, N-(4-(2-((4-(4-((1-(3-((2,6-dioxopiperidin-3-yl)amino)benzoyl)azetidin-3-yl)methyl)piperazin-1-yl)phenyl)amino)pyrimidin-4-yl)-2-methylbenzyl)-1-isopropyl-1H-pyrazole-4-carboxamide] | 59.5% | 93.5% | 98.5% |
| Cc1cc(-c2ccnc(Nc3ccc(N4CCN(CC5CCN(C(=O)c6cccc(NC7CCC(=O)NC7=O)c6)CC5)CC4)cc3)n2)ccc1CNC(=O)c1cnn(C(C)(C)C)c1 (stereo not drawn) [Example 95, 1-(tert-butyl)-N-(4-(2-((4-(4-((1-(3-((2,6-dioxopiperidin-3-yl)amino)benzoyl)piperidin-4-yl)methyl)piperazin-1-yl)phenyl)amino)pyrimidin-4-yl)-2-methylbenzyl)-1H-pyrazole-4-carboxamide] | 67.5% | 94.5% | 98.0% |
| Cc1cc(-c2ccnc(Nc3ccc(N4CCN(CC5CN(C(=O)c6cccc(NC7CCC(=O)NC7=O)c6)C5)CC4)cc3)n2)ccc1CNC(=O)c1cnn(C(C)(C)C)c1 (stereo not drawn) [Example 96, 1-(tert-butyl)-N-(4-(2-((4-(4-((1-(3-((2,6-dioxopiperidin-3-yl)amino)benzoyl)azetidin-3-yl)methyl)piperazin-1-yl)phenyl)amino)pyrimidin-4-yl)-2-methylbenzyl)-1H-pyrazole-4-carboxamide] | 70.0% | 95.5% | 98.0% |
| Cc1cc(-c2ccnc(Nc3ccc(N4CCN(CC5CCN(C(=O)c6cccc(NC7CCC(=O)NC7=O)c6)CC5)CC4)cc3)n2)ccc1CNC(=O)c1cn(C(C)(C)C)nn1 (stereo not drawn) [Example 97] | 67.5% | 94.0% | 98.5% |
| Cc1cc(-c2ccnc(Nc3ccc(N4CCN(CC5CN(C(=O)c6cccc(NC7CCC(=O)NC7=O)c6)C5)CC4)cc3)n2)ccc1CNC(=O)c1cn(C(C)(C)C)nn1 (stereo not drawn) [Example 98, 1-(tert-butyl)-N-(4-(2-((4-(4-((1-(3-((2,6-dioxopiperidin-3-yl)amino)benzoyl)azetidin-3-yl)methyl)piperazin-1-yl)phenyl)amino)pyrimidin-4-yl)-2-methylbenzyl)-1H-1,2,3-triazole-4-carboxamide] | 71.0% | 95.5% | 98.5% |
| Cc1cc(-c2ccnc(Nc3ccc(C4CCN(CC5CCN(C(=O)c6cccc(NC7CCC(=O)NC7=O)c6)CC5)CC4)cc3)n2)ccc1CNC(=O)N1CC(OC(C)C)C1 (stereo not drawn) [Example 99, N-(4-(2-((4-(1-((1-(3-((2,6-dioxopiperidin-3-yl)amino)benzoyl)piperidin-4-yl)methyl)piperidin-4-yl)phenyl)amino)pyrimidin-4-yl)-2-methylbenzyl)-3-isopropoxyazetidine-1-carboxamide] | 46.5% | 92.0% | 98.5% |

Reference: patent publication US20250041429A1, “COMPOUND HAVING BTK PROTEIN DEGRADATION ACTIVITY, AND MEDICAL USES THEREOF” (UBIX THERAPEUTICS, INC., priority 2021, published 2025)
